From US7410971B2, “1,2-di(cyclic)substituted benzene compounds” (Eisai R&D Management Co., Ltd., priority 2003, dated 2008)

Experiments:
Jurkat cells = experiment: Jurkat cell adhesion system (adhesion to immobilized human fibronectin, PMA-stimulated); format: cell-based; conditions: concentration inhibiting by 50% the PMA-stimulated increase in number of adhered Jurkat cells on human fibronectin
Experimental: Evaluation of Compounds in Jurkat Cell Adhesion System
<Immobilization of Human Fibronectin in 96-Well Plate>
Human fibronectin (Becton Dickinson Biosciences) was diluted with phosphate-buffered saline (hereinafter abbreviated as PBS; Sigma) to 0.1-0.01 μg/ml, and the diluted solution was added to a 96-well plate (Becton Dickinson) at 50μ/well, and allowed to stand overnight at 4° C. On the following day, the supernatant was removed from the plate, and then PBS containing 1% bovine serum albumin (hereinafter abbreviated as BSA; Sigma) was added thereto at 100 μl/well and incubation was performed at 37° C. for 2 hours in a CO2 incubator (Hirasawa).
The supernatant was removed from each plate and Jurkat cells suspended in RPMI-1640 (Sigma) containing 1 mg/ml BSA were added at 80 μl/well for 2.5×10^5 cells/well. The compound diluted to different concentrations with RPMI-1640 containing 1 mg/ml BSA was immediately added at 10 μl/well, and then 100 nM phorbol myristate acetate (hereinafter abbreviated as PMA; Sigma) in RPMI-1640 containing 1 mg/ml BSA was added at 10 μl/well and the plate was incubated in a CO2 incubator at 37° C. for 45-60 minutes. The supernatant was removed from the plate and each well was washed several times with 100 μl/well of RPMI-1640, after which 50 mM citrate buffer (pH 5.0) containing 3.75 mM p-nitrophenol-N-acetyl-β-D-glucosaminide (Sigma) and 0.25% Triton X-100 (Sigma) were added at 60 μl/well, and the mixture was placed in a CO2 incubator and incubated at 37° C. for 45 minutes. After incubation, 50 mM glycine buffer (pH 10.4) containing 5 mM EDTA was added at 90 μl/well, and the absorbance at 405 nm was measured with an EL340 Automated Microplate Reader (BIO-TEK) to determine the adhered cell count. The concentration of each compound which inhibited the increase in the number of adhered cells by the PMA-stimulation by 50% was recorded as the IC50 (μM).

DSS-induced colitis = DSS-induced colitis model; format: in vivo, Balb/c mice; conditions: 30 mg/kg orally once a day for 5-7 successive days; 1-3% DSS in water for 5-7 days
Text: Evaluation of Compounds in DSS-Induced Colitis Model
A 1-3% solution of dextran sulfate sodium (hereinafter abbreviated as DSS; ICN) in purified water (Otsuka Pharmaceutical) was fed freely to 6- to 7-week-old male Balb/c mice (Charles River Japan) for 5-7 days to induce colitis. Disease Activity Index (hereinafter abbreviated as DAI) scored based on fecal hardness, blood content in feces and body weight change, the number of neutrophils infiltrating the colon and the length of the colon were used as indexes to evaluate compounds. Each compound was suspended or dissolved in an aqueous solution containing 0.5% methyl cellulose (Wako), and orally administered at 30 mg/kg once a day, for 5-7 successive days.

SMILES | IC50 (Jurkat cells) | improvement in comparison with the DSS control group (DAI, number of neutrophils infiltrating the colon, length of the colon) (DSS-induced colitis)
CCCCN1CCN(c2cc(C#N)ccc2[C@H]2CC[C@H](C(C)(C)C)CC2)CC1.Cl [Example 13, trans-4-(4-t-Butylcyclohexyl)-3-(4-butylpiperazin-1-yl)benzonitrile hydrochloride] | 3.9 µM | particularly good improvement
CCCCN1CCN(c2cc(C#N)ccc2[C@H]2CC[C@@H](C(C)(C)C)CC2)CC1.Cl [Example 12, cis-4-(4-t-Butylcyclohexyl)-3-(4-butylpiperazine-1-yl)benzonitrile hydrochloride] | 3.1 µM | particularly good improvement
